# According to US20030224978A1, “Compounds and methods for modulating apoptosis” (McGill University, priority 1996, published 2003):
# “Also recorded” adds a separate entry of the source.
# How the values were obtained:
# [1] = system: HUVEC; format: cell-based, human; conditions: 3 h
# [2] = system: NRK cells; assay: Disruption of normal rat kidney (NRK) cell adhesion and E-cadherin immunostaining; format: cell-based; conditions: 1 mg/mL, 48 hours
# Method: Within another such assay, the effect of a modulating agent on normal rat kidney (NRK) cells may be evaluated. According to a representative procedure, NRK cells (ATCC #1571-CRL) may be plated at 10-20,000 cells per 35 mm tissue culture flasks containing DMEM with 10% FCS and sub-cultured periodically (Laird et al., J. Cell Biol. 131:1193-1203, 1995). Cells may be harvested and replated in 35 mm tissue culture flasks containing 1 mm coverslips and incubated until 50-65% confluent (24-36 hours). At this time, coverslips may be transferred to a 24-well plate, washed once with fresh DMEM and exposed to modulating agent at a concentration of, for example, 1 mg/mL for 24 hours. Fresh modulating agent may then be added, and the cells left for an additional 24 hours. Cells may be fixed with 100% methanol for 10 minutes and then washed three times with PBS. Coverslips may be blocked for 1 hour in 2% BSA/PBS and incubated for a further 1 hour in the presence of mouse anti-E-cadherin antibody (Transduction Labs, 1:250 dilution). Primary and secondary antibodies may be diluted in 2% BSA/PBS. Following incubation in the primary antibody, coverslips may be washed three times for 5 minutes each in PBS and incubated for 1 hour with donkey anti-mouse antibody conjugated to fluorescein (diluted 1:200). Following further washes in PBS (3×5 min) coverslips can be mounted and viewed by confocal microscopy.
# In the absence of modulating agent, NRK cells form characteristic tightly adherent monolayers with a cobblestone morphology in which cells display a polygonal shape. NRK cells that are treated with a modulating agent that disrupts E-cadherin mediated cell adhesion may assume a non-polygonal and elongated morphology (i.e., a fibroblast-like shape) within 48 hours of treatment with 1 mg/mL of modulating agent. Gaps appear in confluent cultures of such cells. In addition, 1 mg/mL of such a modulating agent reproducibly induces a readily apparent reduction in cell surface staining of E-cadherin, as judged by immunofluorescence microscopy (Laird et al., J. Cell Biol. 131:1193-1203, 1995), of at least 75% within 48 hours.
# NRK cells (ATCC #1571-CRL) were plated at 10-20,000 cells per 35 mm tissue culture flasks containing DMEM with 10% FCS and sub-cultured periodically (Laird et al., J. Cell Biol. 131:1193-1203, 1995). Cells were harvested and replated in 35 mm tissue culture flasks containing […] coverslips and incubated until 50-65% confluent (24-36 hours). At this time, coverslips were transferred to a 24-well plate, washed once with fresh DMEM and exposed to cyclic peptide solutions (N-Ac-CHAVC-NH2 (SEQ ID NO:10) and N-Ac-CHGVC-NH2 (SEQ ID NO:20)) at a concentration of 1 mg/mL for 24 hours. Fresh peptide solutions were then added and the cells were left for an additional 24 hours. […]
# [3] = system: Melanoma ME 115 cells; assay: Disruption of melanoma cell adhesion, pan-cadherin immunostaining; format: cell-based, human; conditions: 500 μg/mL, 48 hours
# Method: Melanoma ME 115 cells (kindly provided by Meenhard Herlyn, Wistar Institute, Philadelphia, Pa.) were plated on glass coverslips and cultured for 24 hours in 50% keratinocyte growth medium (Clonetics, San Diego, Calif.) and 50% L15. Fresh medium containing the cyclic peptides (final concentration 500 μg/mL media) N-Ac-CHAVC-NH2 (SEQ ID NO:10) or N-Ac-CHGVC-NH2 (SEQ ID NO:20) was then added. Following 24 hours of culture in the presence of the peptides, the medium was removed and fresh medium containing the peptides was added. The cells were fixed 24 hours later with cold methanol and stored in phosphate buffered saline (PBS).
# Coverslips were blocked for 1 hour in 3% ovalbumin/PBS and incubated for a further 1 hour in the presence of rabbit pan-cadherin antibody (Sigma Chemical Co., St. Louis, Mo.) diluted 1:500. Primary and secondary antibodies were diluted in PBS containing 6% normal goat serum. Following incubation in the primary antibody, coverslips were washed 3 times for 5 minutes each in PBS and incubated for 1 hour in goat anti-rabbit immunoglobulin G conjugated to fluorescein (Kiekegard and Perry, South San Francisco, Calif.) diluted 1:100. Following a further wash in PBS (3×5 minutes) coverslips were mounted in Vectashield (Vector Labs, Burlingame, Calif.) and viewed with a Zeiss infinity corrected microscope.
# [4] = system: PC-3; format: cell-based, human; conditions: 3 h
# Method: (§1) N-Ac-CHAVC-NH2 (SEQ ID NO:10) and the control peptide N-Ac-CHGVC-NH2 (SEQ ID NO:20) were evaluated for possible cytotoxic effects on human microvascular endothelial (HMVEC; Clonetics), human umbilical vein endothelial (HUVEC; ATCC #CRL-1730), IAFp2 (human fibroblast cell line; Institute Armand-Frapier, Montreal, Quebec), WI-38 (human fibroblast cell line; ATCC #CCL-75), MDA-MB231 (human breast cancer cell line; ATCC #HTB-26), and PC-3 (human prostate cancer cell line; ATCC #CRL-1435) cells utilizing the MTT assay (Plumb et al., Cancer Res. 49:4435-4440, 1989). Neither of the peptides was cytotoxic at concentrations up to and including 100 μM. Similarly, neither of the peptides was capable of inhibiting the proliferation of the above cell lines at concentrations up to 100 μM, as judged by ^3H-thymidine incorporation assays.
# [5] = system: WI-38; format: cell-based, human; conditions: 3 h
# Method: as §1
# [6] = system: HMVEC; format: cell-based, human; conditions: 3 h
# Method: as §1
# [7] = system: IAFp2; format: cell-based, human; conditions: 3 h
# Method: as §1
IC50 [4],IC50 [6],IC50 [7],SMILES,IC50 [1],E-cadherin expression in NRK cells (immunofluorescence) [2],effect on NRK cell adhesion [2],cadherin staining in melanoma ME115 cells [3],effect on melanoma cell adhesion [3],IC50 [5]
> 100 µM,> 100 µM,> 100 µM,"CC(=O)N[C@H]1CSSC[C@@H](C(N)=O)NC(=O)[C@H](C(C)C)NC(=O)[C@H](C)NC(=O)[C@H](Cc2c[nH]cn2)NC1=O [N-Ac-CHAVC-NH2, N-Ac-Cys-His-Ala-Val-Cys-NH2]",> 100 µM,greatly reduced levels of E-cadherin,disrupted NRK cell adhesion; also recorded: retract from one another,absence of cell membrane staining and the appearance of bright intracellular vesicular staining; also recorded: cadherin is localized in intracellular vesicles,disrupts melanoma cell adhesion,> 100 µM
> 100 µM,> 100 µM,> 100 µM,"CC(=O)N[C@H]1CSSC[C@@H](C(N)=O)NC(=O)[C@H](C(C)C)NC(=O)CNC(=O)[C@H](Cc2c[nH]cn2)NC1=O [N-Ac-CHGVC-NH2, reference compound]",> 100 µM,expressed E-cadherin,had no affect on cell adhesion,displayed cadherin staining all over the cell membrane,–,> 100 µM
